Results as given in US20180015051A1, “MODULATORS OF ALPHA-DICARBONYL DETOXIFICATION AND THEIR USE FOR THE TREATMENT OF DIABETIC PATHOLOGIES” (Buck Institute for Research on Aging, priority 2016, published 2018).

Experiments:
[1] = system: 50B11 cells (immortalized rat DRG neuronal cells); test: MGO-mediated neurotoxicity in differentiated 50B11 cells (DIC imaging, neurite length, soma size); type: cell-based; settings: 20-24 h
Procedure: 50B11 cells (immortalized rat DRG neuronal cells) maintain self-replication capability over many cell divisions (>300). The results described in this article were obtained with cells between 100 and 400 passages. Cells were grown in antibiotic treated complete Neurobasal media containing glucose, L-glutamine, Fetal Bovine Serum (FBS), B-27 supplement, and nerve growth factor (NGF) (100 ng/ml). Differentiation and axonal elongation was induced by addition of forskolin (75 pM) into the culture medium. […] Methylglyoxal was administered at a final concentration of 250 pM for 20-24 h post-differentiation of the cells. Podocarpic acid was added at a final concentration of 250 pM and incubated for the same period with or without methylglyoxal. Ethanol was used as a vehicle control. […] Neurite outgrowth was quantified by manually measuring the length of a projection from the edge of the cell body; a neurite was defined as a thin projection longer than the diameter of the associated cell body. Area of soma or cell body was measured excluding the neurite projections. Images were processed using Image Analyst MKII software (www.imageanalyst.net/) and quantification was done using Image J software (//imagei.nih.gov/ij/). 75-100 cells selected randomly were considered for quantification under each experimental condition.

C. elegans [2] = test: Neuronal damage assay, pan-neuronal GFP reporter (unc-33p::gfp); type: in vivo, Caenorhabditis elegans
Procedure: Animals were paralyzed using freshly prepared 5 mM levamisole in M9 buffer and mounted on 2% agar pads under glass coverslips. […] Images were acquired under 40× objective. Neuronal deterioration was examined and characterized by loss of fluorescent intensity of nerve ring, neuronal waviness, and thinning and fragmentation of axons and neuronal commissures. Quantification and imaging of animals harboring damage was performed using the Image J™ software (//imagei.nih.gov/ii/).

C. elegans [3] = test: Touch assay (touch index, gentle touch)
Procedure: For feeding RNAi bacteria, synchronized L1 larvae were transferred to NGM plates containing 1 mM of isopropyl P-D-1- thiogalactopyranoside/IPTG (referred to as RNAi plates) seeded with 20× concentrated HT1115 bacteria (cultured overnight at 20° C. at 220 rpm), carrying desired plasmid for RNAi of a specific gene or bacteria carrying empty vector pL4440 as control and allowed to grow on plates for 48 h. For drug assays, synchronized L4 larvae were transferred to either 60 mm NGM plates (with or without IPTG), freshly seeded with 5×E. coli OP50-1 or 20× HT1115 RNAi bacteria. Before seeding, the desired drug (or vehicle control) was mixed with the bacteria. Final drug concentrations were calculated considering the total volume of media and bacteria seeded on the NGM plates.
Briefly, each animal was touched alternately in the head region and in the tail with an eyelash. Typically, an omega turn or diversion in head direction resulting from anterior touch was counted as a positive response. Posterior touch response (not counted towards positive response) functioned towards resetting of the response to anterior touch. Touch index (TI) scores were generated by dividing the total number of positive responses over the […] per animal.
Synchronized glod-4 L1 animals were cultured on NGM agar plates seeded with E. coli OP50-1 until L4. […] Post-transfer into wells, animals were fed OP50-1 bacteria ad libitum while incubating at 20° C. on a rocker for 12 h. DMSO was used as control. Post-incubation with drug or DMSO, animals were transferred from wells onto NGM agar plates seeded with OP50-1 bacteria. Touch assay was performed on individual animal and touch index (TI) was calculated for each compound from the library as mentioned earlier.

Row | SMILES | Neurite length (neurite outgrowth) ([1]; MGO 250 pM) | Soma size (cell bodies) ([1]; MGO 250 pM) | Neuronal damage (C. elegans [2]; unc-33p::gfp, day 4 of adulthood, 7 mM MGO vs water) | Touch sensitivity (touch index) (C. elegans [3]; N2 animals, young adult stage, 7 mM MGO vs water) | MGO-induced neurotoxic phenotypes (cell body size, neurite outgrowth) ([1]; PA and MGO each at 250 pM) | Neuronal damage (C. elegans [2]; unc-33p::gfp on glod-4 RNAi, day 10 of adulthood, PA (20 pM) vs EtOH control) | Touch sensitivity (touch index), lack of touch sensitivity (C. elegans [3]; glod-4, day 8 of adulthood, PA (20 pM) vs EtOH control) | Touch sensitivity (touch index), hyperesthesia (C. elegans [3]; glod-4, young adult stage, PA (20 pM) vs EtOH control)
1 | CC(=O)C=O [MGO, methylglyoxal] | significant retraction of neurite outgrowths | shrinkage in cell bodies | neuronal damage | hyperesthesia |  |  |  | 
2 | C[C@]1(C(=O)O)CCC[C@]2(C)c3cc(O)ccc3CC[C@@H]12 [PA, podocarpic acid] |  |  |  |  | ameliorate these MGO-induced neurotoxic phenotypes | prevent the prominent neuronal damages | lack of touch sensitivity to wild-type levels | revert the hyperesthesia
